Source: patent US8765696B2, “Steroid compound” (Mikasa Seiyaku Co., Ltd., priority 2009, dated 2014)

Legend:
[1] = tested on: croton oil-induced granuloma; experiment: Test for croton oil-induced granuloma (air pouch exudate and thymus weight); assay type: in vivo, rat; details: male Wistar rats, 7 days, vs control group
Source text: Using the croton oil granuloma test, which is a test method with which the local anti-inflammatory action and the systemic side effect can be evaluated at the same time, the pharmacological effect and the systemic side effect of the compounds of the present invention were studied.
Five individuals/group of male Wistar rats having body weights of 180 to 225 g were used, and hair on the back of these rats was shaved with a clipper under ether anesthesia, followed by preparing an air pouch by subcutaneous injection of 20 mL of air at the back. On the next day, 1 mL of cottonseed oil containing 1% croton oil was administered to the pouch. Each test drug was suspended in the croton oil-containing cottonseed oil before administration. Seven days later, blood was collected from abdominal aorta under ether anesthesia, and exudate in the pouch was collected and its fluid amount was measured. Further, the thymus was removed, and its weight was measured. The weight of the exudate and the weight of the thymus are shown in Table 2 as the suppression rate and the atrophy rate (%) with respect to those of the control group.

[2] = tested on: croton oil-induced ear edema; experiment: Test for croton oil-induced ear edema; assay type: in vivo; details: rat right auricle; for Edema suppression rate of 6 hours after administration of inflammatory agent (%): 6 hours after croton oil; for Edema suppression rate of 24 hours after administration of inflammatory agent (%): 24 hours after croton oil
Description: Croton oil ear edema test, which is a representative model for dermatitis, was used to study the pharmacological effect of compounds of the present invention.
Five individuals/group of rats of 5 weeks old (body weight, 128 g to 169 g) were used. One day before the test, the thickness of the right ear was measured under ether anesthesia using a dial thickness gauge, to obtain the Pre value. On the day of the test, 20 mg each of the ointments to be tested, which had been prepared to have various concentrations in white vaseline, was applied to the right auricle (both sides) of each rat, and a collar was then placed around the neck of the rat to prevent contacting/scratching and removal of the drug. Two hours later, the ointment was wiped off under ether anesthesia using absorbent cotton, and 0.1 mL of 5% croton oil (croton oil:ether:pyridine:distilled water=1:14:4:1) solution was applied dropwise to the both sides of the auricle while drying the solution with a drier (air blow), to induce ear edema. Six and 24 hours after the induction of the edema, the thickness of the right auricle was measured under ether anesthesia, and the edema rate and the edema suppression rate were calculated according to the equations below, which suppression rate is shown in Table 1.

SMILES | Rate of exudates suppression (pharmacological effects) ([1]; dose 0.001 mg/rat into pouch) [%] | Rate of thymus atrophy (systemic side effects) ([1]; dose 0.001 mg/rat into pouch) [%] | Rate of exudates suppression (pharmacological effects) ([1]; dose 0.01 mg/rat into pouch) [%] | Rate of thymus atrophy (systemic side effects) ([1]; dose 0.01 mg/rat into pouch) [%] | Rate of exudates suppression (pharmacological effects) ([1]; dose 0.1 mg/rat into pouch) [%] | Rate of thymus atrophy (systemic side effects) ([1]; dose 0.1 mg/rat into pouch) [%] | Rate of exudates suppression (pharmacological effects) ([1]; dose 1 mg/rat into pouch) [%] | Rate of thymus atrophy (systemic side effects) ([1]; dose 1 mg/rat into pouch) [%] | Edema suppression rate of 6 hours after administration of inflammatory agent (%) ([2]; ointment concentration 0.001%) | Edema suppression rate of 24 hours after administration of inflammatory agent (%) ([2]; ointment concentration 0.001%) | Edema suppression rate of 6 hours after administration of inflammatory agent (%) ([2]; ointment concentration 0.01%) | Edema suppression rate of 24 hours after administration of inflammatory agent (%) ([2]; ointment concentration 0.01%) | Edema suppression rate of 6 hours after administration of inflammatory agent (%) ([2]; ointment concentration 0.1%) | Edema suppression rate of 24 hours after administration of inflammatory agent (%) ([2]; ointment concentration 0.1%)
CC(=O)NC1C(OCC(=O)C23OC(C4CCCCC4)OC2CC2C4CCC5=CC(=O)C=CC5(C)C4C(O)CC23C)OC(COC(C)=O)C(OC(C)=O)C1OC(C)=O (stereo not drawn) [Compound 12] | 3.6 | 0.0 | 0.0 | 5.8 | 0.0 | 17.7 | 76.5 | 8.0 | 29.9 | 36.6 | 16.7 | 29.6 | 12.4 | 9.1
CC(C)C(=O)OCC1OC(OCC(=O)C23OC(C4CCCCC4)OC2CC2C4CCC5=CC(=O)C=CC5(C)C4C(O)CC23C)C(OC(=O)C(C)C)C(OC(=O)C(C)C)C1OC(=O)C(C)C (stereo not drawn) [Compound 6] | 0.0 | 0.0 | 12.0 | 0.0 | 31.2 | 0.0 | 71.9 | 0.0 | 27.5 | 30.5 | 53.1 | 45.8 | 53.1 | 55.1
CCCC(=O)OCC1OC(OCC(=O)C23OC(C4CCCCC4)OC2CC2C4CCC5=CC(=O)C=CC5(C)C4C(O)CC23C)C(OC(=O)CCC)C(OC(=O)CCC)C1OC(=O)CCC (stereo not drawn) [Compound 5] | 17.8 | 0.0 | 14.3 | 0.0 | 40.4 | 0.0 | 91.4 | 0.0 | 21.7 | 11.1 | 61.5 | 48.1 | 57.6 | 52.3
CC(=O)NC1C(OCC(=O)C23OC(C4CCCCC4)OC2CC2C4CCC5=CC(=O)C=CC5(C)C4C(O)CC23C)OC(COC(C)=O)C(OC(C)=O)C1OC(C)=O (stereo not drawn) [Compound 11] | 13.1 | 3.9 | 21.2 | 7.9 | 66.0 | 10.8 | 93.4 | 16.0 | 24.5 | 39.4 | 19.0 | 26.5 | 33.6 | 48.0
CC(C)C(=O)OCC(=O)[C@@]12O[C@H](C3CCCCC3)O[C@@H]1C[C@H]1[C@@H]3CCC4=CC(=O)C=C[C@]4(C)[C@H]3[C@@H](O)C[C@@]12C [Ciclesonide, ciclesonide, reference compound] | 62.8 | 6.0 | 93.5 | 13.0 | 93.0 | 23.6 | 92.6 | 84.4 | 9.1 | 9.4 | 30.3 | 24.5 | 49.4 | 43.5
CC(=O)OC1C(C)OC(OCC(=O)C23OC(C4CCCCC4)OC2CC2C4CCC5=CC(=O)C=CC5(C)C4C(O)CC23C)C(OC(C)=O)C1OC(C)=O (stereo not drawn) [Compound 9] | 10.4 | 12.2 | 7.3 | 10.8 | 26.1 | 9.4 | 58.2 | 15.5 | 24.6 | 17.8 | 36.7 | 8.6 | 23.0 | 21.6
